Data taken from patent US20220313698A1, “MODULATORS OF CYSTIC FIBROSIS TRANSMEMBRANE CONDUCTANCE REGULATOR” (Vertex Pharmaceuticals Incorporated, priority 2019, published 2022).

Molecular target: CFTR-mediated chloride transport (Homo sapiens, UniProt P13569)
Experiment: Corrector Assay A - membrane potential dye assay (enteroid cells)
Conditions: for Corrector Assay A % activity: % of chloride transport of triple combination control (1 μM (14S)-dispiro macrocycle + 3 μM tezacaftor + 300 nM ivacaftor); for EC50: read-out: Corrector Assay A EC50, human intestinal enteroid cells, 18-24 h incubation, acute 10 μM forskolin + 300 nM ivacaftor

With `CC(=O)N1CCC(C2CC[C@@H]3CN(c4nc(C(C)(C)C)ccc4C(=O)NS(=O)(=O)c4cccc(n4)N2)C(C)(C)C3)CC1` (stereo partly drawn) [Compound 228, (14S)-17-(1-Acetylpiperidin-4-yl)-8-tert-butyl-12,12-dimethyl-2λ^6-thia-3,9,11,18,23-pentaazatetracyclo[17.3.1.111,14.05,10]tetracosa-1(23),5(10),6,8,19,21-hexaene-2,2,4-trione] the “Corrector Assay A % activity” value was “++ (++ is 30-60%)” and the EC50 was under 1 µM.
With `CN(C)CC(=O)N1CCC(C2CC[C@@H]3CN(c4nc(C(C)(C)C)ccc4C(=O)NS(=O)(=O)c4cccc(n4)N2)C(C)(C)C3)CC1` (stereo partly drawn) [Compound 236, (14S)-8-tert-butyl-17-{1-[2-(dimethylamino)acetyl]piperidin-4-yl}-12,12-dimethyl-2λ^6-thia-3,9,11,18,23-pentaazatetracyclo[17.3.1.111,14.05,10]tetracosa-1(23),5(10),6,8,19,21-hexaene-2,2,4-trione] the “Corrector Assay A % activity” value was “++ (++ is 30-60%)” and the EC50 was 1 to 3 µM.
`CC(C)(C)c1ccc2c(n1)N1C[C@@H](CCC(C3CCN(CCC(F)(F)F)CC3)Nc3cccc(n3)S(=O)(=O)NC2=O)CC1(C)C` (stereo partly drawn) [Compound 238, (14S)-8-tert-butyl-12,12-dimethyl-17-[1-(3,3,3-trifluoropropyl)piperidin-4-yl]-2λ^6-thia-3,9,11,18,23-pentaazatetracyclo[17.3.1.111,14.05,10]tetracosa-1(23),5(10),6,8,19,21-hexaene-2,2,4-trione] was tested, and the “Corrector Assay A % activity” value was “++ (++ is 30-60%)” and the EC50 was under 1 µM.
In the case of `CC1(C)C[C@@H]2CC[C@H](c3ccccn3)Nc3cccc(n3)S(=O)(=O)NC(=O)c3ccc(Br)nc3N1C2` [Compound 246, (14S,17R)-8-bromo-12,12-dimethyl-17-(pyridin-2-yl)-2λ^6-thia-3,9,11,18,23-pentaazatetracyclo[17.3.1.111,14.05,10]tetracosa-1(22),5,7,9,19(23),20-hexaene-2,2,4-trione], the “Corrector Assay A % activity” value is reported as “++ (++ is 30-60%)” and the EC50 is reported as under 1 µM.
`CC1(C)C[C@@H]2CC[C@@H](c3ccccn3)Nc3cccc(n3)S(=O)(=O)NC(=O)c3ccc(Br)nc3N1C2` [Compound 247, (14S,17S)-8-bromo-12,12-dimethyl-17-(pyridin-2-yl)-2λ^6-thia-3,9,11,18,23-pentaazatetracyclo[17.3.1.111,14.05,10]tetracosa-1(22),5,7,9,19(23),20-hexaene-2,2,4-trione] was tested, and the “Corrector Assay A % activity” value was “+ (+ is <30%)” and the EC50 was under 1 µM.
In the case of `CN1c2cccc(n2)S(=O)(=O)NC(=O)c2ccc(C(C)(C)C)nc2N2C[C@@H](CC[C@H]1c1ccccc1)CC2(C)C` [Compound 262], the “Corrector Assay A % activity” value is reported as “+++ (+++ is >60%)” and the EC50 is reported as under 1 µM.
For `CC(C)(C)c1ccnc([C@H]2CC[C@@H]3CN(c4nc(-c5cccc(OCCC6CC6)n5)ccc4C(=O)NS(=O)(=O)c4cccc(n4)N2)C(C)(C)C3)c1` [Compound 301, (14S,17R)-17-(4-tert-butylpyridin-2-yl)-8-[6-(2-cyclopropylethoxy)pyridin-2-yl]-12,12-dimethyl-2λ^6-thia-3,9,11,18,23-pentaazatetracyclo[17.3.1.111,14.05,10]tetracosa-1(22),5,7,9,19(23),20-hexaene-2,2,4-trione], the “Corrector Assay A % activity” value was “+++ (+++ is >60%)” and the EC50 was under 1 µM.
With `CC(C)(C)c1ccnc([C@H]2CC[C@@H]3CN(c4nc(-c5cccc(OCC6CCC6)n5)ccc4C(=O)NS(=O)(=O)c4cccc(n4)N2)C(C)(C)C3)c1` [Compound 302, (14S,17R)-17-(4-tert-butylpyridin-2-yl)-8-[6-(cyclobutylmethoxy)pyridin-2-yl]-12,12-dimethyl-2λ^6-thia-3,9,11,18,23-pentaazatetracyclo[17.3.1.111,14.05,10]tetracosa-1(22),5,7,9,19(23),20-hexaene-2,2,4-trione] the “Corrector Assay A % activity” value was “+++ (+++ is >60%)” and the EC50 was under 1 µM.
`CC(C)(C)CCOc1cccc(-c2ccc3c(n2)N2C[C@@H](CC[C@H](c4cc(C(C)(C)C)ccn4)Nc4cccc(n4)S(=O)(=O)NC3=O)CC2(C)C)n1` [Compound 303, (14S,17R)-17-(4-tert-butylpyridin-2-yl)-8-[6-(3,3-dimethylbutoxy)pyridin-2-yl]-12,12-dimethyl-2λ^6-thia-3,9,11,18,23-pentaazatetracyclo[17.3.1.111,14.05,10]tetracosa-1(22),5,7,9,19(23),20-hexaene-2,2,4-trione] was tested, and the “Corrector Assay A % activity” value was “+++ (+++ is >60%)” and the EC50 was under 1 µM.
With `CC(C)(C)CCOc1cccc(-c2ccc3c(n2)N2C[C@@H](CC[C@H](c4cccc(C(F)(F)F)n4)Nc4cccc(n4)S(=O)(=O)NC3=O)CC2(C)C)n1` [Compound 304, (14S,17R)-8-[6-(3,3-dimethylbutoxy)pyridin-2-yl]-12,12-dimethyl-17-[6-(trifluoromethyl)pyridin-2-yl]-2λ^6-thia-3,9,11,18,23-pentaazatetracyclo[17.3.1.111,14.05,10]tetracosa-1(22),5,7,9,19(23),20-hexaene-2,2,4-trione] the “Corrector Assay A % activity” value was “++ (++ is 30-60%)” and the EC50 was under 1 µM.
`CC(C)(C)CCOc1ccn(-c2ccc3c(n2)N2C[C@@H](CC[C@H](c4cc(C(C)(C)C)ccn4)Nc4cccc(n4)S(=O)(=O)NC3=O)CC2(C)C)n1` [Compound 305, (14S,17R)-17-(4-tert-butylpyridin-2-yl)-8-[3-(3,3-dimethylbutoxy)-1H-pyrazol-1-yl]-12,12-dimethyl-2λ^6-thia-3,9,11,18,23-pentaazatetracyclo[17.3.1.111,14.05,10]tetracosa-1(22),5,7,9,19(23),20-hexaene-2,2,4-trione] was tested, and the “Corrector Assay A % activity” value was “+++ (+++ is >60%)” and the EC50 was under 1 µM.
For `CC(C)(C)CCOc1ccn(-c2ccc3c(n2)N2C[C@@H](CC[C@H](c4cccc(C(F)(F)F)n4)Nc4cccc(n4)S(=O)(=O)NC3=O)CC2(C)C)n1` [Compound 306, (14S,17R)-8-[3-(3,3-dimethylbutoxy)-1H-pyrazol-1-yl]-12,12-dimethyl-17-[6-(trifluoromethyl)pyridin-2-yl]-2λ^6-thia-3,9,11,18,23-pentaazatetracyclo[17.3.1.111,14.05,10]tetracosa-1(22),5,7,9,19(23),20-hexaene-2,2,4-trione], the “Corrector Assay A % activity” value was “++ (++ is 30-60%)” and the EC50 was under 1 µM.
With `CC(C)(C)c1ccnc([C@H]2CC[C@@H]3CN(c4nc(-c5cccc(F)n5)ccc4C(=O)NS(=O)(=O)c4cccc(n4)N2)C(C)(C)C3)c1` [Compound 307, (14S,17R)-17-(4-tert-butylpyridin-2-yl)-8-(6-fluoropyridin-2-yl)-12,12-dimethyl-2λ^6-thia-3,9,11,18,23-pentaazatetracyclo[17.3.1.111,14.05,10]tetracosa-1(22),5,7,9,19(23),20-hexaene-2,2,4-trione] the “Corrector Assay A % activity” value was “+++ (+++ is >60%)” and the EC50 was under 1 µM.
For `CC1(C)C[C@@H]2CC[C@H](c3cccc(C(F)(F)F)n3)Nc3cccc(n3)S(=O)(=O)NC(=O)c3ccc(-c4cccc(F)n4)nc3N1C2` [Compound 308, (14S,17R)-8-(6-fluoropyridin-2-yl)-12,12-dimethyl-17-[6-(trifluoromethyl)pyridin-2-yl]-2λ^6-thia-3,9,11,18,23-pentaazatetracyclo[17.3.1.111,14.05,10]tetracosa-1(22),5,7,9,19(23),20-hexaene-2,2,4-trione], the “Corrector Assay A % activity” value was “++ (++ is 30-60%)” and the EC50 was under 1 µM.
For `CC(C)(C)CCOc1cccc(-c2ccc3c(n2)N2C[C@@H](CC[C@H](c4ccccn4)Nc4cccc(n4)S(=O)(=O)NC3=O)CC2(C)C)n1` [Compound 310], the “Corrector Assay A % activity” value was “++ (++ is 30-60%)” and the EC50 was under 1 µM.
